Among the data in ChEMBL document CHEMBL1250451, “Mechanistic insights into a Ca2+-dependent family of alpha-mannosidases in a human gut symbiont” (Nat Chem Biol, 2010) are Activity values, retold here.

Holding throughout (type): protein assay
Assay [1] has as its target T1, Alpha-1,2-mannosidase family protein (BT_1032) (Bacteroides thetaiotaomicron) (UniProt Q8A8Y5).
T1 sequence (whole entry): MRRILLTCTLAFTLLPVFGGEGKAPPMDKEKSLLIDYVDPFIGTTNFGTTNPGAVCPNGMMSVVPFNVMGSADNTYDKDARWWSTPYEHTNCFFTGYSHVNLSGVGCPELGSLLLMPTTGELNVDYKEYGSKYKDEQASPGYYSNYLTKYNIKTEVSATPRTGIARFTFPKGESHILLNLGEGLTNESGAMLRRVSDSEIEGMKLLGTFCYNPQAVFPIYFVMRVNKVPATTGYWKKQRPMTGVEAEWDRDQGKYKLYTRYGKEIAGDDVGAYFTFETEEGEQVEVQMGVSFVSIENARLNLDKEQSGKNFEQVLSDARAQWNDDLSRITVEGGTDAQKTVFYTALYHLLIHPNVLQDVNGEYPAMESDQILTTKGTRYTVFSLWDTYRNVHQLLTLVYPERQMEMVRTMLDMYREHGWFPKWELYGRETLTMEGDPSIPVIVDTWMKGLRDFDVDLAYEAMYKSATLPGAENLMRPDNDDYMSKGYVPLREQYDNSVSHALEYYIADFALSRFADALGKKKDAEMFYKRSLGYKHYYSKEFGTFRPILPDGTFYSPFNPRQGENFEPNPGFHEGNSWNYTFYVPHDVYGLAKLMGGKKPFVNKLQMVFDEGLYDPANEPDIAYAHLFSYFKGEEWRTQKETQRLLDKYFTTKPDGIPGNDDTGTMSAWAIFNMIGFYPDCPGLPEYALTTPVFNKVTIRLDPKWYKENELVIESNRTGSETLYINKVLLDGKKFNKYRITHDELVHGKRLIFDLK
The experiment in a line: Activity of Bacteroides thetaiotaomicron GH92 alpha-mannosidase 1032 assessed as mannose release at 1 mM after 16 hrs by HPLC relative to untreated control.

Assay [2] addresses T2, Alpha-1,2-mannosidase (BT_1878) (Bacteroides thetaiotaomicron) (UniProt Q8A6K3).
T2 sequence (whole entry): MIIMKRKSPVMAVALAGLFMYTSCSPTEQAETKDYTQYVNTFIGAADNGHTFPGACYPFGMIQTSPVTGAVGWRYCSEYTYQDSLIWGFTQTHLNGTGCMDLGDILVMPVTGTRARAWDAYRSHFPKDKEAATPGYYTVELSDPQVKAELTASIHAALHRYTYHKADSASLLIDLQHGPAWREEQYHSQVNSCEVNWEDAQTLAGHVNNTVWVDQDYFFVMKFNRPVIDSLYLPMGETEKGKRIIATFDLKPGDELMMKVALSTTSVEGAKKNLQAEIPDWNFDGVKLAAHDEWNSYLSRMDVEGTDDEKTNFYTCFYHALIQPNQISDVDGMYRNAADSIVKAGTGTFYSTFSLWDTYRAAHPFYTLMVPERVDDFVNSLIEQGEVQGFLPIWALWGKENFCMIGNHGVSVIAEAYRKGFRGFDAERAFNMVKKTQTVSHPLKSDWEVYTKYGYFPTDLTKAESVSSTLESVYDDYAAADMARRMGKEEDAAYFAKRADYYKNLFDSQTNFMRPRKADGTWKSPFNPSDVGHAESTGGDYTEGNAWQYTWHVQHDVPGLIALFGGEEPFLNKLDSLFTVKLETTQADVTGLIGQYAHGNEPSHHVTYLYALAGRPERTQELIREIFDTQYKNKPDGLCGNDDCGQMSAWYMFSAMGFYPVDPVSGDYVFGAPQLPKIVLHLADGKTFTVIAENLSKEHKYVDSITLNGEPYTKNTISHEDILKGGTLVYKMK
The experiment in a line: Activity of Bacteroides thetaiotaomicron GH92 alpha-mannosidase GH92 alpha-mannosidase 1878 assessed as mannose release at 1 mM after 16 hrs by HPLC relative to untreated control after 16 hrs by HPLC.

For assay [3], the target named is T3, Alpha-1,2-mannosidase (BT_3991) (Bacteroides thetaiotaomicron) (UniProt Q8A0N0).
T3 sequence (whole entry): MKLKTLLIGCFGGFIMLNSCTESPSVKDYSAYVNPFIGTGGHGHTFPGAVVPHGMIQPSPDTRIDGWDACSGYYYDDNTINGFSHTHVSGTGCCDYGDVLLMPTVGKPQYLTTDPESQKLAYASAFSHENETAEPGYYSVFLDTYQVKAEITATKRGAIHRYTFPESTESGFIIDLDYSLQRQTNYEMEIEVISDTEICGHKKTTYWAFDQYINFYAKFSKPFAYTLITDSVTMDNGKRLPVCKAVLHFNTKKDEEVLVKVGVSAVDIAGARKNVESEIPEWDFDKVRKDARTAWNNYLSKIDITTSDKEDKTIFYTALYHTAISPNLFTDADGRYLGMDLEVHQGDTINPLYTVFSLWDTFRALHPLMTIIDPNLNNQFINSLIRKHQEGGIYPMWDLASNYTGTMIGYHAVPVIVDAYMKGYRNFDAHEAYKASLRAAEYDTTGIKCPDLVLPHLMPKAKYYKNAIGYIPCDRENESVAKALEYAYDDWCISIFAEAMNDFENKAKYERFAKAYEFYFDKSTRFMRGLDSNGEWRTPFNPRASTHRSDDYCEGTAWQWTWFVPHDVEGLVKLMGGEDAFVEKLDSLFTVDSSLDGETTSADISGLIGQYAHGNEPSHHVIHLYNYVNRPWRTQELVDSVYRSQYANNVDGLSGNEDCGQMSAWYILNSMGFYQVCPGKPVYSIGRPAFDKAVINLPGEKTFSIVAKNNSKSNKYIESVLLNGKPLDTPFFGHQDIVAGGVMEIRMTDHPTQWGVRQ
The experiment in a line: Activity of Bacteroides thetaiotaomicron GH92 alpha-mannosidase GH92 alpha-mannosidase 3991 assessed as mannose release at 1 mM after 16 hrs by HPLC relative to untreated control after 16 hrs by HPLC.

Molecules are shown by their SMILES. Activity calls are given as the source filed them. The rule behind the calls is not given here.

On to `OC[C@H]1O[C@H](O[C@@H]2[C@H](O)[C@@H](O)O[C@H](CO)[C@H]2O)[C@@H](O)[C@@H](O)[C@@H]1O`, for which, in assay [1], the outcome was inactive.

For the compound `OC[C@H]1O[C@H](O[C@H]2[C@H](O)[C@H](O)[C@@H](O)O[C@@H]2CO)[C@@H](O)[C@@H](O)[C@@H]1O`, the result in assay [1] and in assay [3] was inactive. In addition, the Activity in assay [2] was found to be 3.6%.

As for `OC[C@H]1O[C@H](O[C@H]2[C@@H](O)[C@H](O)[C@@H](CO)O[C@@H]2O)[C@@H](O)[C@@H](O)[C@@H]1O`, in assay [1], the result was inactive. Besides, the Activity in assay [2] amounted to 4.5%; in assay [3], 0.8%.

Take `OC[C@H]1O[C@H](OC[C@H]2O[C@H](O)[C@@H](O)[C@@H](O)[C@@H]2O)[C@@H](O)[C@@H](O)[C@@H]1O`: the outcome in assay [1] was inactive. Also, the Activity in assay [2] was 1.1%; in assay [3], 1.51%.
